Reference: ChEMBL document CHEMBL3430912, “GSK Tres Cantos Anti-Kinetoplastid Screening (TCAKS) Data”
pIC50: −log10 of the molar value.

Key:
[1] = tested on: NIH3T3; assay: GSK_TCAKS: pIC50 NIH 3T3 cell line viability assay using luminiscence. Tissue culture surface treated assay plates (1536-well) were used. […] The 100% cells survival control was determined exposing the host-cells to a 0.5% DMSO concentration, whereas the 100% toxicity control was achieved by seeding the cells in presence of Amphotericin B at 50uM. Plates were incubated for four days at 37C, 5% CO2. The assay readout was developed by addition of 5uL of CellTiter-Glo Reagent following the manufacturer's instructions. Luminiscence was measured using a ViewLux.; format: functional, cell-based; details: Mus musculus, NIH3T3, 96 h
[2] = tested on: Leishmania donovani; assay: (§1) GSK_TCAKS: pIC50 Leishmania donovani Imaging: Infected Macrophages. Assay plates (384-well) were prepared by adding 250nL of compound to each well. For single shot assay, the final compound concentration was 5 uM. […] Automated image analysis was performed with a script developed on Acapella High Content Imaging and Analysis Software (PerkinElmer). Output: Percent of infected macrophage cells were reported for each well.; format: functional, organism-based, Homo sapiens; details: THP-1
[3] = tested on: Trypanosoma cruzi; assay: (§2) GSK_TCAKS: pIC50 H2C9 Imaging: H9c2 Host Cardiomyocytes. […] Cells were then washed once with PBS before infection. T. cruzi trypomastigotes, collected at days 5 to 8 after infection from LLC-MK2 parasite infected cultures, were allowed to swim out for 4h at 37C from a centrifuged pellet (2,500 rpm/10 min/room temperature). Trypomastigotes were then collected and counted in a CASY Cell Counter. Trypomastigotes, in supplemented DMEM, were added to H9c2 cultures in a multiplicity of infection of 1 and incubated for 18 h. Cells were washed once with PBS before incubation of the infected H9c2 monolayer with trypsin (Life-Technologies) to detach cells from the flask. Cells were counted in a CASY Cell Counter using a 150 um capillary and their density set at 5 * 10^4 cells per mL in supplemented assay DMEM. Infected H9c2 were dispensed into 384-well poly-lysine coated assay plates at 50uL per well using a Multidrop Combi dispenser. After seeding them, the plates were incubated at 37C, 5% CO2 for 72h. Cultures were then fixed and stained by addition of 50 uL of a solution containing 8% formaldehyde and 4 uM DRAQ5 DNA dye (BioStatus, UK) per well. […] Five images were collected per well for reliable statistical analysis. Automated image analysis was performed with a script developed on Acapella High Content Imaging and Analysis Software (PerkinElmer). Output: Number of H9c2 Host Cardiomyocytes nuclei to determine drug-related cytotoxicity.; format: functional, organism-based, Rattus norvegicus; details: H9c2, 4 h
[4] = tested on: Trypanosoma cruzi; assay: GSK_TCAKS: pIC50 Trypanosoma cruzi viability assay using beta-GAL activity. This assay was run at single shot at 5uM compound concentration per well. The biological reagents consisted of NIH-3T3 host cells and trypomastigotes parasitic cells; both cell types were set to a 3.3 * 10^5 cells/mL dilution in assay DMEM by means of a CASY cell counter device using a 60um capillary. 6 uL of the mixture were dispensed per well (about 1 * 10^3 host-cells and 1 * 10^3 parasites) with a Multidrop Combi dispenser. […] In all wells, the percentage of DMSO never exceeded 0.5%. Plates incubated for four days at 37C, 5% CO2. The substrate used for the assay fluorescence intensity (FLINT) readout was resorufin-beta-D-galactopiranoside (Sigma-Aldrich) at 5uM per well. It was diluted in PBS supplemented with the soft detergent Igepal (Fluka).; format: functional, organism-based, Mus musculus; details: Tulahuen, NIH3T3
[5] = tested on: Trypanosoma cruzi; assay: as §2, with “Trypanosoma cruzi” for “H2C9”, “Infected Cells.” for “H9c2 Host Cardiomyocytes.”, “percentage” for “Number”, “infected cells per well as a second infection marker.” for “H9c2 Host Cardiomyocytes nuclei to determine drug-related cytotoxicity.”; format: functional, organism-based, Rattus norvegicus; details: H9c2, 4 h
[6] = tested on: Leishmania donovani; assay: as §1, with “THP-1 Host” for “Infected”, “THP-1 cell count” for “Percent of infected macrophage cells”; format: functional, organism-based, Homo sapiens
[7] = target: Sterol 14-alpha demethylase (Trypanosoma cruzi (strain CL Brener), UniProt Q7Z1V1); assay: GSK_TCAKS: pIC50 CYP51 from Trypanosoma cruzi.; format: functional
[8] = tested on: Leishmania donovani; assay: as §1, with “Amastigotes/Macrophages.” for “Infected Macrophages.”, “Average number” for “Percent”, “amastigotes per” for “infected”, “cell” for “cells”; format: functional, organism-based, Homo sapiens; details: THP-1
[9] = GSK_TCAKS: pIC50 HepG2 human cell line viability assay using luminiscence. […] Seeding density was checked to ensure that new mono-layers were not more than 50% confluent at the time of harvesting. Cell suspension was added to 500 mL of the same medium at a final density of 1.2 * 10^5 cells/mL. This cell suspension was dispensed (25 uL, 3000 cells per well) into 384-well clear-bottom plates using a Multidrop Combi dispenser. Prior to addition of the cell suspension, the screening compounds (250 nL) were pre-dispensed into the plates with an Echo liquid handler. Plates were incubated for 48 h at 37C, 5% CO2. After incubation, plates equilibrated at room temperature for 30 min before proceeding to develop the luminescent signal. The signal developer, CellTiter-Glo Reagent, was allowed to equilibrate at room temperature for 30 min and added to the plates (25uL per well) using a Multidrop Combi dispenser. Plates were left for 10 min at room temperature for stabilization and then read using a ViewLux.; format: toxicity, cell-based
[10] = tested on: Trypanosoma cruzi; assay: as §2, with “Trypanosoma cruzi” for “H2C9”, “Amastigotes/Cell.” for “H9c2 Host Cardiomyocytes.”, “number” for “Number”, “amastigotes per cell as infection level measurement.” for “H9c2 Host Cardiomyocytes nuclei to determine drug-related cytotoxicity.”; format: functional, organism-based, Rattus norvegicus; details: H9c2, 4 h
[11] = tested on: Trypanosoma brucei brucei; assay: GSK_TCAKS: pIC50 Trypanosoma brucei viability assay using luminiscence. Assay plates (1536-well) were prepared. T. brucei cultures were harvested and counted in a CASY cell counter. A parasite suspension was prepared at a final concentration of 5 * 10^4 cells/mL in complete HMI9 medium and 6uL was dispensed to all wells containing compounds using a Multidrop Combi dispenser. 6uL of HMI9 media with 0.4% DMSO were dispensed to control columns. Plates were incubated for 24 h at 37C, 5% CO2 then tempered for 10 min at room temperature. ATP content was quantified by adding 4 uL of CellTiter-Glo Reagent (Promega) according to the manufacturer's instructions. Luminescence was measured using a ViewLux.; format: functional, organism-based; details: Lister 427, CASY
[12] = tested on: Trypanosoma brucei brucei; assay: GSK_TCAKS: pIC50 Trypanosoma brucei viability assay using fluorescence intensity. Assay plates (1536-well) were prepared by dispensing 25nL of compound solution per well using an Echo acoustic dispenser (Labcyte).; format: functional, organism-based; details: Lister 427, 2 h
[13] = tested on: Leishmania donovani; assay: GSK_TCAKS: pIC50 Leishmania donovani viability assay using fluorescence intensity. Assay plates (1536-well) were prepared by adding 30nL per well of compound. For single shot assay, the final compound concentration was 5uM. […] Briefly, eGFP LdBOB axenic amastigotes were harvested, fixed and counted in a CASY cell counter (Roche-Applied Science). A final concentration of 1.5 * 10^5 cells per well were prepared in amastigote media containing 500 U/mL penicillin/streptomycin (Invitrogen) and 6uL was dispensed to each experimental well using a Multidrop Combi dispenser (Thermo Scientific). 6uL of assay media was dispensed to control columns used as reference for 100% compound response. Following incubation for 72 h at 37C, 5% CO2, 2 uL of resazurin was added to each well at a final concentration of 0.5 mM in phosphate buffered saline (PBS) with IGEPAL (Sigma-Aldrich), 0.05% (v/v).; format: functional, organism-based

Sterol 14-alpha demethylase, sequence (Q7Z1V1 whole entry): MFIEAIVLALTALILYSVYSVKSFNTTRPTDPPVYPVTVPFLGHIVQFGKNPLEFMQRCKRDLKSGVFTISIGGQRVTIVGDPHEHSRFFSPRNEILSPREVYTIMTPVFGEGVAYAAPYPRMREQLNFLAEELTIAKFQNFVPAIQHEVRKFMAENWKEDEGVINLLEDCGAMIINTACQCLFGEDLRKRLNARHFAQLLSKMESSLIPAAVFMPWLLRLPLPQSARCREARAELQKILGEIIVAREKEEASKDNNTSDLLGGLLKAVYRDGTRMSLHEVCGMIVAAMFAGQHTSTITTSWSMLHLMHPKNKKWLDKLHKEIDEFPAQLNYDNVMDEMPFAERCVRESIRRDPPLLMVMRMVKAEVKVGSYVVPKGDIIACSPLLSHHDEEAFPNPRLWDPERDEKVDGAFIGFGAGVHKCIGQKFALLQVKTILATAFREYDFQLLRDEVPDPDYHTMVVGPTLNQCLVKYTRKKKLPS

Row | Structure (SMILES) | pIC50 [1] | pIC50 [2] | pIC50 [3] | pIC50 [4] | pIC50 [5] | pIC50 [6] | pIC50 [7] | pIC50 [8] | IC50 at 48 h [9] | pIC50 [10] | pIC50 [11] | pIC50 [12] | pIC50 [13]
1 | CC(C)(C)C(Cn1ccnc1)NC(=O)c1ccc2nc(C3CC3)oc2c1 (stereo not given) | < 4.30 | < 4.30 | < 4.30 | 7.00 | 7.00 | 4.80 | 7.00 | < 4.30 | > 100 µM | 7.10 | < 4.40 | < 4.40 | 4.70
2 | Cc1ccc(CNC2CCN(C[C@@H]3Cn4c(=O)ccc5ccc(=O)n3c54)CC2)cc1F | 4.80 | < 4.30 | < 4.30 | 5.90 | 5.90 | < 4.30 | < 4.00 | < 4.30 | > 100 µM | 6.00 | 5.70 | 5.80 | < 4.30
3 | Cc1nc(N2CCC(C(=O)N3CCC(O)(c4cccnc4)CC3)CC2)nc2ccc(C(C)C)cc12 | 4.60 | 4.30 | 4.40 | 5.80 | 6.50 | 4.60 | 6.90 | 5.00 | 79.4 µM | 6.40 | 4.50 | 4.70 | < 4.30
4 | CN(Cc1ccc(F)cc1)c1ccc(OCC(=O)N2CCCCC2c2cccnc2)nn1 (stereo not given) | 5.00 | < 4.30 | < 4.30 | 6.50 | 6.40 | 4.50 | 7.30 | < 4.30 | > 100 µM | 6.40 | < 4.40 | < 4.40 | 4.80
5 | Cc1ccc(NC(=O)C(C)n2nc([N+](=O)[O-])c(Br)c2C)cc1Cl (stereo not given) | 4.90 | < 4.30 | < 4.30 | 5.60 | 5.20 | < 4.30 | < 4.00 | < 4.30 | 79.4 µM | 5.50 | < 4.40 | 4.80 | < 4.30
6 | c1ccc(CCNCc2cncc3nc(-c4cnccn4)n(C4CCCCC4)c23)cc1 | 5.20 | < 4.30 | < 4.30 | 6.50 | 6.90 | < 4.30 | 7.00 | < 4.30 | > 100 µM | 6.90 | < 4.40 | 4.50 | < 4.30
7 | CN(Cc1nc2ccccc2s1)C(=O)C=Cc1cc2ccccc2o1 | 4.50 | < 4.30 | < 4.30 | 6.20 | 6.10 | < 4.30 | 6.80 | 4.80 | > 100 µM | 6.00 | < 4.40 | 4.50 | 4.30
8 | CC(=O)Nc1ccc(-c2noc(CC3CCCN(Cc4cccc(F)c4C)C3)n2)cc1 (stereo not given) | 4.60 | 4.50 | 4.50 | 6.00 | 5.70 | < 4.30 | < 4.00 | 4.90 | > 100 µM | 5.90 | 4.60 | 4.70 | 4.40
9 | N#Cc1ccc(S(=O)(=O)N2CCC3(CCN(c4ccccc4)C3=O)CC2)cc1 | < 4.30 | < 4.30 | < 4.30 | 5.90 | 6.00 | < 4.30 | < 4.00 | < 4.30 | > 100 µM | 6.20 | < 4.40 | < 4.40 | < 4.30
10 | Cc1cccc(NS(=O)(=O)c2cnc3sc(C)cn3c2=O)c1 | < 4.30 | < 4.30 | 5.20 | 5.90 | 5.70 | < 4.30 | < 4.00 | 5.30 | > 100 µM | 6.00 | < 4.40 | < 4.40 | < 4.30
11 | O=C(N1CCc2ccccc2CC1)C1(C(=O)N2CCC(n3c(=O)[nH]c4ncccc43)CC2)CC1 | 4.40 | < 4.30 | < 4.30 | 6.20 | 6.10 | < 4.30 | 6.50 | < 4.30 | > 100 µM | 6.20 | < 4.40 | < 4.40 | < 4.30
12 | COc1ccc2ncc(=O)n(CCN3CCOC(CNCc4ccc(C(F)(F)F)cc4F)C3)c2n1 (stereo not given) | 5.40 | < 4.30 | < 4.30 | 6.40 | 5.80 | < 4.30 | 5.00 | < 4.30 | > 100 µM | 6.20 | 5.60 | 6.20 | 4.40
13 | CS(=O)(=O)c1cccc(CNC(=O)c2cncc(N3CCN(c4ccc(F)cc4)CC3)c2)c1 | 4.60 | < 4.30 | < 4.30 | 6.20 | 6.40 | < 4.30 | 4.90 | < 4.30 | > 100 µM | 6.60 | < 4.40 | 4.50 | < 4.30
14 | O[C@H]1CC[C@H](Nc2nccc(-c3sc(C4CCOCC4)nc3-c3ccc(F)c(F)c3)n2)CC1 | 4.40 | 5.30 | 4.50 | 6.50 | 6.50 | 4.70 | < 4.00 | 5.60 | 25.1 µM | 6.70 | 5.40 | 5.70 | 5.50
15 | O=c1oc2ccccc2n1C1CCN(Cc2ccccc2-c2cccnc2)CC1 | 4.80 | < 4.30 | < 4.30 | 6.30 | 6.50 | 4.90 | 7.00 | 5.20 | > 100 µM | 6.40 | < 4.40 | 4.40 | < 4.30
